# Laboratory results from ChEMBL document CHEMBL1201862, “PubChem BioAssay data set” (2004).
# Active and inactive are the calls of the source.
# How the values were obtained:
# Coagulation factor XII = target: T1, Coagulation factor XII (Homo sapiens, UniProt P00748); assay type: functional;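 note: activated factor XIIa alpha cleaving a fluorogenic AMC peptide substrate; inhibitor potency from loss of enzyme activity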
# T1 sequence (P00748 whole entry): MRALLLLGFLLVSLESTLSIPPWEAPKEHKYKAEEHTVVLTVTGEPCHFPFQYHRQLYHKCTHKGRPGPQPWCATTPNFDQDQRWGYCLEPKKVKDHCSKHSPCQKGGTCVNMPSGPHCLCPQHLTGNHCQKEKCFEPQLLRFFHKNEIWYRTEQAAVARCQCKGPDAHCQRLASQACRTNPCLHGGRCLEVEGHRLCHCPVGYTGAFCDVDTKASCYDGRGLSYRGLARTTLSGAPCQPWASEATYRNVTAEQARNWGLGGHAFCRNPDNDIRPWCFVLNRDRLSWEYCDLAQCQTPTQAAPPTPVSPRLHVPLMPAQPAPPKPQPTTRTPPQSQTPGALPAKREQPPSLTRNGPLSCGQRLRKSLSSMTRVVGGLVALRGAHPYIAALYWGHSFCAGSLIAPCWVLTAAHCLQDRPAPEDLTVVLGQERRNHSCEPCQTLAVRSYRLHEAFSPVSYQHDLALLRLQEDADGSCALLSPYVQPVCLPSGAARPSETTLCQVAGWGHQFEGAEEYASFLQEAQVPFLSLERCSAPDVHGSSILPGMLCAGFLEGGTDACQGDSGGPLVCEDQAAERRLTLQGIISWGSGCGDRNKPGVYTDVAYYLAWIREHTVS
# [1] = target: Neurotensin receptor type 1 (Homo sapiens, UniProt P30989); assay type: functional;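 note: Image-based confirmatory dose-response assay measuring agonist activity at NTR1; NTR1-expressing U2OS osteosarcoma cells imaged for beta-arrestin GFP spot formation; agonist potency where compounds increase beta-arrestin recruitment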
# Melanocortin receptor 4 = Melanocortin receptor 4 (Homo sapiens, UniProt P32245); assay type: functional, cell-based;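 note: Cell-based assay with luminescence read-out, confirmatory dose-response testing for agonist activity of biased ligands at MC4R; human U2OS cells with tagged receptor and beta-arrestin; potency of agonists that increase receptor coupling to beta-arrestin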
# [2] = target: T2, Voltage-gated N-type calcium channel alpha-1B subunit/Amyloid beta A4 precursor protein-binding family A member 1 (Homo sapiens, UniProt Q00975+Q02410); assay type: protein assay
# SUMO-activating enzyme = SUMO-activating enzyme (Homo sapiens, UniProt Q9UBT2); assay: SUMOylation inhibitor hit validation, confirmation, SUMOylation inhibitor project, biochemical, AlphaScreen (AID 2018); assay type: functional
# [3] = target: T2, Voltage-gated N-type calcium channel alpha-1B subunit/Amyloid beta A4 precursor protein-binding family A member 1; assay type: protein assay; remark: listed apart in the source
# [4] = inhibitors of intracellular T. cruzi replication, confirmation, NIH3T3 host cells, beta-gal luminescence (AID 2044); assay type: functional, cell-based;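 note: intracellular parasites grown in NIH/3T3 mouse fibroblasts as host cells; luminescent beta-galactosidase reporter signal from transgenic T. cruzi replicating inside host cells; inhibitors lower the luminescence signal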
# Cytochrome P450 2C19 = Cytochrome P450 2C19 (Homo sapiens, UniProt P33261); assay: Cytochrome panel assay with activity outcomes. Panel member name: p450-cyp2c19 Compounds with AC50 equal or less than 10 uM are considered active; assay type: functional; settings: read-out: AC50
# [5] = test system: Streptococcus sp. 'group A'; assay: growth inhibition of control SK(-) GAS strain, dose response, counter-screen for streptokinase expression inhibitor project, luminescence, kanamycin, BacTiterGlo, confirmation (AID 1900); assay type: functional, organism-based
# Streptokinase A = target: T3, Streptokinase A (Streptococcus pyogenes serotype M1, UniProt P10520); assay: S. pyogenes streptokinase expression inhibitors, potency, dose response, plasminogen activation absorbance, OD405 (AID 1914); assay type: functional, Streptococcus pyogenes M1 GAS;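 note: secreted streptokinase activity via plasminogen activation per viability signal from cell pellet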
# T3 sequence (P10520 whole entry): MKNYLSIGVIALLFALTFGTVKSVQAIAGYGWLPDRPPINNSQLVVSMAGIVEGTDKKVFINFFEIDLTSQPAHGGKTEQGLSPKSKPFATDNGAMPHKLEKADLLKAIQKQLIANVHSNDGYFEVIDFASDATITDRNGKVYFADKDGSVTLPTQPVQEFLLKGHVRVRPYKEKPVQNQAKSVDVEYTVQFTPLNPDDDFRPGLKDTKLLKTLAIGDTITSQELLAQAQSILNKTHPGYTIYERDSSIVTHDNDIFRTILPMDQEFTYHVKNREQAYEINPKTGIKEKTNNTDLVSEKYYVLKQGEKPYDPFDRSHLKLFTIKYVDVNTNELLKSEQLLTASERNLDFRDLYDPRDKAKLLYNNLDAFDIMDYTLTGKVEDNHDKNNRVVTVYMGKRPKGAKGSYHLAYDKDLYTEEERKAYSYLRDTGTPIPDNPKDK
# [6] = cytotoxicity toward NIH3T3 fibroblasts, dose response, counter-screen, cell-based, ATP luminescence, mouse fibroblasts (AID 2010); assay type: functional;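 note: cells exposed to compound for about 90 hours before reading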
# Streptococcus = assay: Group A Streptococcus viability loss, dose response, counter-screen for streptokinase expression inhibitor project, luminescence, BacTiterGlo (AID 1915); assay type: functional, organism-based;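 note: potency for reduction of bacterial viability or growth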
# Cytochrome P450 2C9 = Cytochrome P450 2C9 (Homo sapiens, UniProt P11712)
# [7] = growth suppression of PTEN-null colon cells, dose response, cell-based, HCT116 PTEN knockout (AID 1047); assay type: functional;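 note: HCT116 colon tumor cells with PTEN knocked out; cells exposed to compound for 60 hours before readout; potency for loss of cell viability measured by luminescence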
# [8] = microbe, parasite or virus in culture; assay type: functional; settings: Mycobacterium tuberculosis
# [9] = Luminescence Cell-Based Dose Retest to Confirm Inhibitors of Cancer Stem Cells. [Related pubchem assays (depositor defined):AID2717, AID2721]; assay type: functional; settings: Homo sapiens
# INS1 = assay: beta cell apoptosis inhibitors, cytokine rescue, dose response, luminescence, retest (AID 449756); assay type: functional, cell-based; settings: Rattus norvegicus;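 note: cell death triggered by IL-1 beta plus TNF-alpha plus IFN-gamma mixture; protective hits raise ATP signal compared with cytokine alone wells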
# [10] = growth suppression of beta-catenin-knockout colon cells, dose response, cell-based, HCT116, human colon tumor (AID 1045); assay type: functional;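 note: HCT116 colon tumor cells with beta catenin knocked out; cells exposed to compound for 60 hours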
# H9c2 = assay: cells; assay type: functional, cell-based; settings: Rattus norvegicus, H9c2, Myocardium;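 note: confirmatory concentration-response retest of ultra-high-throughput screening hits for modulation of myocardial damage; cell death induced by hydrogen peroxide oxidative stress; compound pretreatment for 60 min then peroxide exposure for 2 h; potency is for protecting the cells against peroxide damage rather than for killing them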
# [11] = target: T4, Microphthalmia-associated transcription factor (Homo sapiens, UniProt O75030); assay: TRPM1 promoter luciferase signal decrease, dose response, MITF inhibitor project, cell-based, SK-MEL-5, cherry-picked, set 3 (AID 493073); assay type: functional
# T4 sequence (O75030 whole entry): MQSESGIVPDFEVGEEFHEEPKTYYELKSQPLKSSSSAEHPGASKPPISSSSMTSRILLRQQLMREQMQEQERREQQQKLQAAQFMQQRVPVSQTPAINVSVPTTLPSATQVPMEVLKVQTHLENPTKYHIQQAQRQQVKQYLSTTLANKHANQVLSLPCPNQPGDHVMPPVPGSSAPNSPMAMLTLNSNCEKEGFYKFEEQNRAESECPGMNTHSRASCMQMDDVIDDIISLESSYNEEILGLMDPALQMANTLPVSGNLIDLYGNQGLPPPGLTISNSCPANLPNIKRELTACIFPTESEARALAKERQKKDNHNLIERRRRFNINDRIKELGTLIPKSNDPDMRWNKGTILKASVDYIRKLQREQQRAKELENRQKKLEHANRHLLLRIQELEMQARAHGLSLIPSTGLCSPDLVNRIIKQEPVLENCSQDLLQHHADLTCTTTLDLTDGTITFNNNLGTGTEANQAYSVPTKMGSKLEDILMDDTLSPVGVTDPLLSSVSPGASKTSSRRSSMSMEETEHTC
# Large T antigen = Large T antigen (Simian virus 40, UniProt P03070); assay type: functional, Betapolyomavirus macacae;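 note: Confirmatory-stage PubChem screen for compounds that inhibit SV40 T antigen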
# [12] = target: Induced myeloid leukemia cell differentiation protein Mcl-1 (Homo sapiens, UniProt Q07820); assay type: functional
# [13] = target: T5, Carboxy-terminal domain RNA polymerase II polypeptide A small phosphatase 1 (Homo sapiens, UniProt Q9GZU7); assay: inhibitors of CTDSP1, concentration-response testing, biochemical assay, absorbance-based, actives from ultra-high-throughput screening (AID 540297); assay type: functional
# T5 sequence (Q9GZU7 whole entry): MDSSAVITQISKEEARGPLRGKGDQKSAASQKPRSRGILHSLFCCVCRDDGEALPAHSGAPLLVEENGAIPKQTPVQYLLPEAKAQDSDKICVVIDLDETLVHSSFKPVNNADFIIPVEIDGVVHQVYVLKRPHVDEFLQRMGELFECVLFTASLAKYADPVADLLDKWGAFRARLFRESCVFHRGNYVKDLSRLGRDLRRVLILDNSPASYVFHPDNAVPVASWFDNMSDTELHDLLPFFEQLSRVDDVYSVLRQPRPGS
# ORF 73 = target: T6, ORF 73 (Human herpesvirus 8, UniProt O40947); assay: inhibitors of C-LANA binding to LBS DNA, dose response, biochemical, fluorescence polarization, cherry-picked samples (AID 504725); parameters: species or system Human gammaherpesvirus 8;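 note: fluorescence polarization of a labeled DNA duplex reporting LANA DNA binding; potency is for inhibitors that block LANA binding to the DNA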
# T6 sequence (O40947 whole entry): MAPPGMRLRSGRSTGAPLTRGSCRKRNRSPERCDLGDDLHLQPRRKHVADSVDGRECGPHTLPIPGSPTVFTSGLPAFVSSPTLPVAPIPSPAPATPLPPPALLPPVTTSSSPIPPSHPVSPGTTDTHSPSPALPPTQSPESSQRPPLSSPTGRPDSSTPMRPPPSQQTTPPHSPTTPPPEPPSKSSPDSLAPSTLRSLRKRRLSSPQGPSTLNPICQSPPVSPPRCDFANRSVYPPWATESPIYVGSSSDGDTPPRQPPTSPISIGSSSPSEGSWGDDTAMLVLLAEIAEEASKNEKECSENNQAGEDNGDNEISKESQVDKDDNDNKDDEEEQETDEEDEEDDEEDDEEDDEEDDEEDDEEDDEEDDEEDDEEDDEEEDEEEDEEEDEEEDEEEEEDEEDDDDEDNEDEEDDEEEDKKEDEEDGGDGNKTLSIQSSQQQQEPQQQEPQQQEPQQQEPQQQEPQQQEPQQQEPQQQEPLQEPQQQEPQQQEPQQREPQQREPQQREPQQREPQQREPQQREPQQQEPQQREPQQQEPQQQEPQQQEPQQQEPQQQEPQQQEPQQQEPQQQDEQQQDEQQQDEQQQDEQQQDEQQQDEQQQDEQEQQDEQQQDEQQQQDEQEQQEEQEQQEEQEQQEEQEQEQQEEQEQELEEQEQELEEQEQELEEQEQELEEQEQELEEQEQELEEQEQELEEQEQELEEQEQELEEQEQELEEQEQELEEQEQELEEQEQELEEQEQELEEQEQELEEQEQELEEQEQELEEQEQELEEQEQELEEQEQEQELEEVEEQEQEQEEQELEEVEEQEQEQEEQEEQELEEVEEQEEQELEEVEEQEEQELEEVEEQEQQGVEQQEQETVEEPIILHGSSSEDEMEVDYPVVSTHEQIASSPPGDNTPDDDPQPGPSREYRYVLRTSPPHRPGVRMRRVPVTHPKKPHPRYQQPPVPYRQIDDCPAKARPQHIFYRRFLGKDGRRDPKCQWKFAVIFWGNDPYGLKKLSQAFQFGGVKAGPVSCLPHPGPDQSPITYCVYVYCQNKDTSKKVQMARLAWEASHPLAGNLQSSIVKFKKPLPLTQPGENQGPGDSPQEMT
# T2 sequence (Q00975 whole entry): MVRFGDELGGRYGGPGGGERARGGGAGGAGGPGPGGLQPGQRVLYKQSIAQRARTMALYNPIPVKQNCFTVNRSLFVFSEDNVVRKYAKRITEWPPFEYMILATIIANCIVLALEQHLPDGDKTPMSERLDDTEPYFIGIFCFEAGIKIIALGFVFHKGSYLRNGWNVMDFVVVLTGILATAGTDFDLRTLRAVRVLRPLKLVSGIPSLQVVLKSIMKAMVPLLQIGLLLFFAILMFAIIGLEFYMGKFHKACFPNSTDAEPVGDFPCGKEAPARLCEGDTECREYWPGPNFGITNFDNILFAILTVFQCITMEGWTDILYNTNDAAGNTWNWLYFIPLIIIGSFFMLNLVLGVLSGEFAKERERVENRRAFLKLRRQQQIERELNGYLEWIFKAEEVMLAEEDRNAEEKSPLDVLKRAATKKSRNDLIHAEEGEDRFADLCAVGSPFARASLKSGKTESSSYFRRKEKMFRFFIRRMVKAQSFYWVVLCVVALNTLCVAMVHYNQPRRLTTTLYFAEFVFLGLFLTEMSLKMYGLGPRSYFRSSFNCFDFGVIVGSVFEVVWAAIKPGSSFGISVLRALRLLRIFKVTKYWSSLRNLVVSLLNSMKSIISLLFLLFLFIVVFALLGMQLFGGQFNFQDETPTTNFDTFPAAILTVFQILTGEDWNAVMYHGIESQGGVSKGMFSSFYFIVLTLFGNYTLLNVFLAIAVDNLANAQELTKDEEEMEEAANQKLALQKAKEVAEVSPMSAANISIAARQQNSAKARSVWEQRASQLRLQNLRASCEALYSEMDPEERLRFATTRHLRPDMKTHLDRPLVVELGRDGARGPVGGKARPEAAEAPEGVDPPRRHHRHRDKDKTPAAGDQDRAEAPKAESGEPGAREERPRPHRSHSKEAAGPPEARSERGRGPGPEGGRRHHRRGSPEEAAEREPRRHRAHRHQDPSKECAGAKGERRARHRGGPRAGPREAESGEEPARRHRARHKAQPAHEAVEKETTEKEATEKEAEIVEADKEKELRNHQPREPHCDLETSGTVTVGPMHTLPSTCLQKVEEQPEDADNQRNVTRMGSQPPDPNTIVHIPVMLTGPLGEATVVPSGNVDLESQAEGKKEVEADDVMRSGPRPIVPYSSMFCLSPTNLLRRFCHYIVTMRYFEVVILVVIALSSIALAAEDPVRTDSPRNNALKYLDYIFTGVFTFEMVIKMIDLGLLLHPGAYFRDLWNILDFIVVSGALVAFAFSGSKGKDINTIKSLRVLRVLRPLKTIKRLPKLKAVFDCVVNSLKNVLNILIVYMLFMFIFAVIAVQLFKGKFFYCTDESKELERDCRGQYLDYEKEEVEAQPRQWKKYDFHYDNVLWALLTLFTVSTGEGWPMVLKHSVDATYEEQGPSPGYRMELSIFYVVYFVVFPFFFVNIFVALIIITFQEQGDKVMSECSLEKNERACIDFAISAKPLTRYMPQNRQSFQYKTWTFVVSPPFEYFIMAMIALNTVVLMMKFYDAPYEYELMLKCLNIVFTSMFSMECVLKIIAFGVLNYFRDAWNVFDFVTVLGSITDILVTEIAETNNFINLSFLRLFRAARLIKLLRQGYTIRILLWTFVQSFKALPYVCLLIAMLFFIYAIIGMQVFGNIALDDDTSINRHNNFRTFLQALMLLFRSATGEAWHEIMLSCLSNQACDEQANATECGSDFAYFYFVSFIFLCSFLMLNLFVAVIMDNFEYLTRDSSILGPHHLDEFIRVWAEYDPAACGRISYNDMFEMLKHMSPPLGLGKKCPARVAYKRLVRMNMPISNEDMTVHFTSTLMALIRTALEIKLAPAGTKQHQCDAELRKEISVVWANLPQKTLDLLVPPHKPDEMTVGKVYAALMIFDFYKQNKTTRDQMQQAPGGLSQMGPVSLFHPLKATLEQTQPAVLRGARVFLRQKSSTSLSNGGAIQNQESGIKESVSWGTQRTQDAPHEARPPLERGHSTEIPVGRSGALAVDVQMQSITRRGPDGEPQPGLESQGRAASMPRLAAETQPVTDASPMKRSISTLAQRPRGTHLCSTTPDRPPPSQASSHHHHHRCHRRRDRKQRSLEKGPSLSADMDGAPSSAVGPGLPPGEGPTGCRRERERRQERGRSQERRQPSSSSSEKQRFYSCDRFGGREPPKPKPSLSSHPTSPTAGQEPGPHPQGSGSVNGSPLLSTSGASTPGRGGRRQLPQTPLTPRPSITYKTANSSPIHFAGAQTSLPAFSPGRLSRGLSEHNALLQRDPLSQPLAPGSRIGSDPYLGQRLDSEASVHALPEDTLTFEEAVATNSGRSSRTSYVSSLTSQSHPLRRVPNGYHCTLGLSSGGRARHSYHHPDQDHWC
# T2 sequence (Q02410 whole entry): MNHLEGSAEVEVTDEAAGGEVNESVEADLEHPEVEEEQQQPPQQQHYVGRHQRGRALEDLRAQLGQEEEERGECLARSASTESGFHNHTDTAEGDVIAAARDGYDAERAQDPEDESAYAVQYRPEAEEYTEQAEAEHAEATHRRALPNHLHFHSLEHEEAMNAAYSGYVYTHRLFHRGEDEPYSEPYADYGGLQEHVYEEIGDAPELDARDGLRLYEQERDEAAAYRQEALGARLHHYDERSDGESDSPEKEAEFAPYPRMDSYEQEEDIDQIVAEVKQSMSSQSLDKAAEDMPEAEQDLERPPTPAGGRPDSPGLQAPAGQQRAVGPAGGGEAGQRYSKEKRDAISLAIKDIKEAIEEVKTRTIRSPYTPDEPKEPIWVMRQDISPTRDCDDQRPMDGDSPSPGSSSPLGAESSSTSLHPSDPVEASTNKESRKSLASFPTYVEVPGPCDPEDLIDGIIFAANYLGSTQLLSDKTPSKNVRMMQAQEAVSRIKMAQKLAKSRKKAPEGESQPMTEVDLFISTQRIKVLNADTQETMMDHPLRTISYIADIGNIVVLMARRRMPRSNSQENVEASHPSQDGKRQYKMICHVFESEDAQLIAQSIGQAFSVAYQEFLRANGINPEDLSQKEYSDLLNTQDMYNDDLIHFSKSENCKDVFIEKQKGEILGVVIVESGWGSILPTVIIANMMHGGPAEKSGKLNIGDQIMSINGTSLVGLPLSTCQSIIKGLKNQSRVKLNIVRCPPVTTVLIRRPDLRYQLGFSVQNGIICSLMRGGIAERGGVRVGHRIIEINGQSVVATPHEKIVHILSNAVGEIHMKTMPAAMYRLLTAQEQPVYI
# Sequence of Neurotensin receptor type 1 (P30989 whole entry): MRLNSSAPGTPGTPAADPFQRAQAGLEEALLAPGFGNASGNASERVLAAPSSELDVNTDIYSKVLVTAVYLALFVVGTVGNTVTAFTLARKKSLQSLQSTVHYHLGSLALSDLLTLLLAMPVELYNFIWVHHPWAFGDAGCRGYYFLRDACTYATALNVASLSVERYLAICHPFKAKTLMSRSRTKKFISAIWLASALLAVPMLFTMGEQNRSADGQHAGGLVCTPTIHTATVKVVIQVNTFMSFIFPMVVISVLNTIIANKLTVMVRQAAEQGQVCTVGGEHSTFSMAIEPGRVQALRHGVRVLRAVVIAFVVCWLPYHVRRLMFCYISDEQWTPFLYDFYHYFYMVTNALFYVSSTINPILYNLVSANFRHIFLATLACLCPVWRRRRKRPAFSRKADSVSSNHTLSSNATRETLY
# Sequence of SUMO-activating enzyme (Q9UBE0 whole entry): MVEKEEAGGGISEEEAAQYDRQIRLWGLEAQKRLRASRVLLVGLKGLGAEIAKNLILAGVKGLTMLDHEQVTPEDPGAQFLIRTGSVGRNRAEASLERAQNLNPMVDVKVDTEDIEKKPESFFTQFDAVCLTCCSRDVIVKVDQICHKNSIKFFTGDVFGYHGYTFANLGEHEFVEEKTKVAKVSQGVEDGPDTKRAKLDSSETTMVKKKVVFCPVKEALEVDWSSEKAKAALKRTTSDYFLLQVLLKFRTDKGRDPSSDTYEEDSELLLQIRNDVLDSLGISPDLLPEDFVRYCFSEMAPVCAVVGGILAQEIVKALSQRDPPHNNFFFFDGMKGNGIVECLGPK
# Sequence of SUMO-activating enzyme (Q9UBT2 whole entry): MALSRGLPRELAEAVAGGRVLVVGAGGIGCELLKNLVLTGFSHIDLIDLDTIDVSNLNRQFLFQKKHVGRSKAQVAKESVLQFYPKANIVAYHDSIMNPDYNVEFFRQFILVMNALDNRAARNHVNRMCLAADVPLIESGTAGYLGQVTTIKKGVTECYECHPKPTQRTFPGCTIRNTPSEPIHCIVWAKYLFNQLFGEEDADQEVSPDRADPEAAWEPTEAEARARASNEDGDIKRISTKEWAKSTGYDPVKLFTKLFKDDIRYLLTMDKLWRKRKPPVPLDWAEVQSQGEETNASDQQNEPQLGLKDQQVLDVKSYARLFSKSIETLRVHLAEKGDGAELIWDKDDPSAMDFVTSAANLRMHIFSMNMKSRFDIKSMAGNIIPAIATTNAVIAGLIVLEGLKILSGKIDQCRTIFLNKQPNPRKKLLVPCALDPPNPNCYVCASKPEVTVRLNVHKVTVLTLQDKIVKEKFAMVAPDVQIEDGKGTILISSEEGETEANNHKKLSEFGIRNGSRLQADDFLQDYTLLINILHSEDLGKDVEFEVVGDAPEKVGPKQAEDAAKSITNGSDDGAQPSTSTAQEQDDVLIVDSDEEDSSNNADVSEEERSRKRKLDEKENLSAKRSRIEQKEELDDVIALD
# Sequence of Melanocortin receptor 4 (P32245 whole entry): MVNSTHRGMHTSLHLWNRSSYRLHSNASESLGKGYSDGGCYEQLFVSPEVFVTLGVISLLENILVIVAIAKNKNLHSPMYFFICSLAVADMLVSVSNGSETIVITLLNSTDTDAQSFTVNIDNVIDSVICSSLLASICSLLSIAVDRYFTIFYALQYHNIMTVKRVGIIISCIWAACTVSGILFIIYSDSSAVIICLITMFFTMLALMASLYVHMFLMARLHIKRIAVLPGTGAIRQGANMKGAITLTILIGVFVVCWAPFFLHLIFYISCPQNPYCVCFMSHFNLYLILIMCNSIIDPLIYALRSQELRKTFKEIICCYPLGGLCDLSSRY
structure (smiles),measurement,setting,value
O=C(CSc1nnc(COc2ccccc2)n1Cc1ccco1)c1ccc(F)cc1,IC50,Coagulation factor XII,> 50 µM (inactive)
Clc1ccc(C2=Nn3c(nnc3-c3cc(-c4ccccc4)n[nH]3)SC2)cc1,EC50,[1],37.9 µM (inactive)
same,EC50,Melanocortin receptor 4,> 89.2 µM (inactive)
Nc1ccc2nc(-c3ccc(-c4nc5ccc(N)cc5[nH]4)cc3)[nH]c2c1,IC50,[2],5.62 µM (active)
same,IC50,SUMO-activating enzyme,> 100 µM (inactive)
same,IC50,[3],> 50 µM (inactive)
Cc1cc(C)n(-c2nc(Nc3ccccc3C)nc(-n3nc(C)cc3C)n2)n1,EC50,[4],1.07 µM (active)
same,AC50,Cytochrome P450 2C19,39.8 µM (inconclusive)
same,EC50,[1],7.86 µM (active)
same,EC50,[5],8.77 µM (active)
same,EC50,Streptokinase A,> 150 µM (not active)
same,EC50,[6],> 60 µM (inconclusive)
same,EC50,Streptococcus,23.2 µM (active)
same,AC50,Cytochrome P450 2C9,15.8 µM (inconclusive)
CCc1ccc2c(c1)C1(C(=O)N2)N2CCCC2C(C(=O)c2ccc3ccccc3c2)C12C(=O)Nc1ccccc12 (stereo unspecified),EC50,[1],9.78 µM (active)
same,EC50,[7],10.2 µM (active)
same,CC50,[8],16.2 µM (active)
same,AC50,[9],3.05 µM (active)
same,AC50,INS1,6.87 µM (active)
same,EC50,[10],10.1 µM (active)
COc1cccc(OC)c1-c1nn2c(-c3ccco3)nnc2s1,IC50,Coagulation factor XII,> 50 µM (inactive)
same,IC50,H9c2,> 79 µM (inactive)
CC(C)C(OC(=O)c1cccs1)C(=O)NCc1ccc2c(c1)OCO2 (stereo unspecified),IC50,Coagulation factor XII,> 50 µM (inactive)
O=C1NC(=O)C(=Cc2ccc(-c3cc(Cl)ccc3[N+](=O)[O-])o2)C(=O)N1,AC50,[11],17.2 µM (active)
same,IC50,[2],4.58 µM (active)
same,IC50,Large T antigen,48.3 µM (active)
same,IC50,[3],> 50 µM (inactive)
O=C(O)CCn1cc(C=C2C(=O)NC(=S)NC2=O)c(-c2cc3ccccc3oc2=O)n1,IC50,[2],17.8 µM (active)
same,IC50,[12],3.42 µM (active)
same,IC50,[13],13 µM (active)
same,IC50,[3],6.27 µM (active)
CC(C)c1ccc(NC(=O)c2ccc(Br)o2)cc1,IC50,Coagulation factor XII,> 50 µM (inactive)
Cc1cc2c(c(=O)n1C)C(Cc1ccccc1)C(C#N)=C(N)O2 (stereo unspecified),IC50,Coagulation factor XII,> 50 µM (inactive)
CCOC(=O)C1Nc2ccccc2C2C(O)C(O)CC12 (stereo unspecified),AC50,ORF 73,> 350 µM (inactive)
O=C(N/N=C/c1coc2ccccc2c1=O)c1cc(O)cc(O)c1,IC50,[2],7.54 µM (active)
same,IC50,[3],> 50 µM (inactive)
